{"source": "PubChem BioAssay AID2060626", "about": "(Molecular Pharmacology Branch, DTP, NCI, 2025);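 also: viability measured after seven days of drug exposure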;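 as to viability, T/C: luminescence signal used as surrogate for viable cell amount; 100% = DMSO vehicle control wells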", "system": "168753-222-R-J1-PDC complex spheroid viability", "experiment": "Anticancer human tumor 168753-222-R-J1-PDC patient-derived bladder carcinoma cell line growth inhibition [CLK]", "settings": "for IC50: curve of first compound; for viability, T/C: stronger effect = lower value", "outline": "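Patient-derived tumor cells grown as complex spheroids with HUVEC endothelial cells and mesenchymal stem cells, treated with drug combinations. Concentrations descend in half-log steps from near clinical Cmax, or from 10 microM if Cmax unknown.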", "key": {"[1]": {"settings": "second compound 0.0316 µM, first compound 0.0316 µM"}, "[2]": {"settings": "second compound 0.0316 µM, first compound 0.1 µM"}, "[3]": {"settings": "second compound 0.0316 µM, first compound 0.316 µM"}, "[4]": {"settings": "second compound 0.0316 µM, first compound 1 µM"}, "[5]": {"settings": "second compound 0.0316 µM, first compound 3.16 µM"}, "[6]": {"settings": "second compound 0.0316 µM, first compound 10 µM"}, "[7]": {"settings": "second compound 0.1 µM, first compound 0.0316 µM"}, "[8]": {"settings": "second compound 0.1 µM, first compound 0.1 µM"}, "[9]": {"settings": "second compound 0.1 µM, first compound 0.316 µM"}, "[10]": {"settings": "second compound 0.1 µM, first compound 1 µM"}, "[11]": {"settings": "second compound 0.1 µM, first compound 3.16 µM"}, "[12]": {"settings": "second compound 0.1 µM, first compound 10 µM"}, "[13]": {"settings": "second compound 0.316 µM, first compound 0.0316 µM"}, "[14]": {"settings": "second compound 0.316 µM, first compound 0.1 µM"}, "[15]": {"settings": "second compound 0.316 µM, first compound 0.316 µM"}, "[16]": {"settings": "second compound 0.316 µM, first compound 1 µM"}, "[17]": {"settings": "second compound 0.316 µM, first compound 3.16 µM"}, "[18]": {"settings": "second compound 0.316 µM, first compound 10 µM"}, "[19]": {"settings": "second compound 1 µM, first compound 0.0316 µM"}, "[20]": {"settings": "second compound 1 µM, first compound 0.1 µM"}, "[21]": {"settings": "second compound 1 µM, first compound 0.316 µM"}, "[22]": {"settings": "second compound 1 µM, first compound 1 µM"}, "[23]": {"settings": "second compound 1 µM, first compound 3.16 µM"}, "[24]": {"settings": "second compound 1 µM, first compound 10 µM"}, "[25]": {"settings": "second compound 3.16 µM, first compound 0.0316 µM"}, "[26]": {"settings": "second compound 3.16 µM, first compound 0.1 µM"}, "[27]": {"settings": "second compound 3.16 µM, first compound 0.316 µM"}, "[28]": {"settings": "second compound 3.16 µM, first compound 1 µM"}, "[29]": {"settings": "second compound 3.16 µM, first compound 3.16 µM"}, "[30]": {"settings": "second compound 3.16 µM, first compound 10 µM"}, "[31]": {"settings": "second compound 10 µM, first compound 0.0316 µM"}, "[32]": {"settings": "second compound 10 µM, first compound 0.1 µM"}, "[33]": {"settings": "second compound 10 µM, first compound 0.316 µM"}, "[34]": {"settings": "second compound 10 µM, first compound 1 µM"}, "[35]": {"settings": "second compound 10 µM, first compound 3.16 µM"}, "[36]": {"settings": "second compound 10 µM, first compound 10 µM"}}, "data": [{"smiles": "CC1COCCN1c1cc(C2(S(C)(=N)=O)CC2)nc(-c2ccnc3[nH]ccc23)n1", "note": "(centres undefined) + CNC(=O)c1ccc(Nc2nc(OC3CCCC3)c3c(-c4ccc5nc(C)oc5c4)c[nH]c3n2)c(OC)c1", "values": [{"measurement": "IC50", "setting": "second compound 0.0316 µM", "result": "> 10000", "unit": "nM"}, {"measurement": "IC50", "setting": "second compound 0.1 µM", "result": 8260, "unit": "nM"}, {"measurement": "IC50", "setting": "second compound 0.316 µM", "result": 2960, "unit": "nM"}, {"measurement": "IC50", "setting": "second compound 1 µM", "result": "< 31.6", "unit": "nM"}, {"measurement": "IC50", "setting": "second compound 3.16 µM", "result": "< 31.6", "unit": "nM"}, {"measurement": "IC50", "setting": "second compound 10 µM", "result": "< 31.6", "unit": "nM"}, {"measurement": "viability, T/C", "setting": "[1]", "result": 111, "unit": "%"}, {"measurement": "viability, T/C", "setting": "[2]", "result": 110, "unit": "%"}, {"measurement": "viability, T/C", "setting": "[3]", "result": 102, "unit": "%"}, {"measurement": "viability, T/C", "setting": "[4]", "result": 103, "unit": "%"}, {"measurement": "viability, T/C", "setting": "[5]", "result": 90.8, "unit": "%"}, {"measurement": "viability, T/C", "setting": "[6]", "result": 52.4, "unit": "%"}, {"measurement": "viability, T/C", "setting": "[7]", "result": 101, "unit": "%"}, {"measurement": "viability, T/C", "setting": "[8]", "result": 102, "unit": "%"}, {"measurement": "viability, T/C", "setting": "[9]", "result": 104, "unit": "%"}, {"measurement": "viability, T/C", "setting": "[10]", "result": 108, "unit": "%"}, {"measurement": "viability, T/C", "setting": "[11]", "result": 73.8, "unit": "%"}, {"measurement": "viability, T/C", "setting": "[12]", "result": 45.3, "unit": "%"}, {"measurement": "viability, T/C", "setting": "[13]", "result": 79.8, "unit": "%"}, {"measurement": "viability, T/C", "setting": "[14]", "result": 72.2, "unit": "%"}, {"measurement": "viability, T/C", "setting": "[15]", "result": 74.5, "unit": "%"}, {"measurement": "viability, T/C", "setting": "[16]", "result": 58.2, "unit": "%"}, {"measurement": "viability, T/C", "setting": "[17]", "result": 51.3, "unit": "%"}, {"measurement": "viability, T/C", "setting": "[18]", "result": 30.9, "unit": "%"}, {"measurement": "viability, T/C", "setting": "[19]", "result": 47.8, "unit": "%"}, {"measurement": "viability, T/C", "setting": "[20]", "result": 44.8, "unit": "%"}, {"measurement": "viability, T/C", "setting": "[21]", "result": 38.5, "unit": "%"}, {"measurement": "viability, T/C", "setting": "[22]", "result": 37.3, "unit": "%"}, {"measurement": "viability, T/C", "setting": "[23]", "result": 24.8, "unit": "%"}, {"measurement": "viability, T/C", "setting": "[24]", "result": 18.1, "unit": "%"}, {"measurement": "viability, T/C", "setting": "[25]", "result": 31.5, "unit": "%"}, {"measurement": "viability, T/C", "setting": "[26]", "result": 20.9, "unit": "%"}, {"measurement": "viability, T/C", "setting": "[27]", "result": 19.4, "unit": "%"}, {"measurement": "viability, T/C", "setting": "[28]", "result": 18.8, "unit": "%"}, {"measurement": "viability, T/C", "setting": "[29]", "result": 17.2, "unit": "%"}, {"measurement": "viability, T/C", "setting": "[30]", "result": 14.2, "unit": "%"}, {"measurement": "viability, T/C", "setting": "[31]", "result": 19.6, "unit": "%"}, {"measurement": "viability, T/C", "setting": "[32]", "result": 23, "unit": "%"}, {"measurement": "viability, T/C", "setting": "[33]", "result": 20.6, "unit": "%"}, {"measurement": "viability, T/C", "setting": "[34]", "result": 16.1, "unit": "%"}, {"measurement": "viability, T/C", "setting": "[35]", "result": 15.3, "unit": "%"}, {"measurement": "viability, T/C", "setting": "[36]", "result": 9.89, "unit": "%"}]}, {"smiles": "O=C(c1cc(Cc2n[nH]c(=O)c3ccccc23)ccc1F)N1CCN(C(=O)C2CC2)CC1", "note": "+ CNC(=O)c1ccc(Nc2nc(OC3CCCC3)c3c(-c4ccc5nc(C)oc5c4)c[nH]c3n2)c(OC)c1", "values": [{"measurement": "IC50", "setting": "second compound 0.0316 µM", "result": "> 10000", "unit": "nM"}, {"measurement": "IC50", "setting": "second compound 0.1 µM", "result": "> 10000", "unit": "nM"}, {"measurement": "IC50", "setting": "second compound 0.316 µM", "result": "> 10000", "unit": "nM"}, {"measurement": "IC50", "setting": "second compound 1 µM", "result": "< 31.6", "unit": "nM"}, {"measurement": "IC50", "setting": "second compound 3.16 µM", "result": "< 31.6", "unit": "nM"}, {"measurement": "IC50", "setting": "second compound 10 µM", "result": "< 31.6", "unit": "nM"}, {"measurement": "viability, T/C", "setting": "[1]", "result": 105, "unit": "%"}, {"measurement": "viability, T/C", "setting": "[2]", "result": 113, "unit": "%"}, {"measurement": "viability, T/C", "setting": "[3]", "result": 103, "unit": "%"}, {"measurement": "viability, T/C", "setting": "[4]", "result": 118, "unit": "%"}, {"measurement": "viability, T/C", "setting": "[5]", "result": 114, "unit": "%"}, {"measurement": "viability, T/C", "setting": "[6]", "result": 95.5, "unit": "%"}, {"measurement": "viability, T/C", "setting": "[7]", "result": 92.3, "unit": "%"}, {"measurement": "viability, T/C", "setting": "[8]", "result": 86.1, "unit": "%"}, {"measurement": "viability, T/C", "setting": "[9]", "result": 92.8, "unit": "%"}, {"measurement": "viability, T/C", "setting": "[10]", "result": 95, "unit": "%"}, {"measurement": "viability, T/C", "setting": "[11]", "result": 99.2, "unit": "%"}, {"measurement": "viability, T/C", "setting": "[12]", "result": 93.7, "unit": "%"}, {"measurement": "viability, T/C", "setting": "[13]", "result": 76.8, "unit": "%"}, {"measurement": "viability, T/C", "setting": "[14]", "result": 74.2, "unit": "%"}, {"measurement": "viability, T/C", "setting": "[15]", "result": 68.2, "unit": "%"}, {"measurement": "viability, T/C", "setting": "[16]", "result": 63.6, "unit": "%"}, {"measurement": "viability, T/C", "setting": "[17]", "result": 84.8, "unit": "%"}, {"measurement": "viability, T/C", "setting": "[18]", "result": 70.4, "unit": "%"}, {"measurement": "viability, T/C", "setting": "[19]", "result": 39.7, "unit": "%"}, {"measurement": "viability, T/C", "setting": "[20]", "result": 41, "unit": "%"}, {"measurement": "viability, T/C", "setting": "[21]", "result": 37.3, "unit": "%"}, {"measurement": "viability, T/C", "setting": "[22]", "result": 39.7, "unit": "%"}, {"measurement": "viability, T/C", "setting": "[23]", "result": 44.4, "unit": "%"}, {"measurement": "viability, T/C", "setting": "[24]", "result": 38.4, "unit": "%"}, {"measurement": "viability, T/C", "setting": "[25]", "result": 24.1, "unit": "%"}, {"measurement": "viability, T/C", "setting": "[26]", "result": 26.2, "unit": "%"}, {"measurement": "viability, T/C", "setting": "[27]", "result": 22.7, "unit": "%"}, {"measurement": "viability, T/C", "setting": "[28]", "result": 17.8, "unit": "%"}, {"measurement": "viability, T/C", "setting": "[29]", "result": 22.3, "unit": "%"}, {"measurement": "viability, T/C", "setting": "[30]", "result": 25.5, "unit": "%"}, {"measurement": "viability, T/C", "setting": "[31]", "result": 17.8, "unit": "%"}, {"measurement": "viability, T/C", "setting": "[32]", "result": 18.5, "unit": "%"}, {"measurement": "viability, T/C", "setting": "[33]", "result": 18.7, "unit": "%"}, {"measurement": "viability, T/C", "setting": "[34]", "result": 18.1, "unit": "%"}, {"measurement": "viability, T/C", "setting": "[35]", "result": 18.1, "unit": "%"}, {"measurement": "viability, T/C", "setting": "[36]", "result": 21.3, "unit": "%"}]}]}
